The conditions of the data set: ester bond, DCM.

This note sets out measurements from patent EP4806446A2.

Each structure is given as a SMILES string. Like-named read-outs stand apart in the source and are kept apart here.

Where the note is “from CCn1c(-c2cc(N3CCN(C4CC4)CC3)cnc2[C@H](C)OC)c(CC(C)(C)CO)c2cc(-c3csc(C[C@H](NC(=O)OC(C)(C)C)C(=O)N(C)NCC(=O)O)n3)ccc21, PyBOP/DMAP, 5.9 mM, 0.0 °C, 1.0 h”, `CCn1c(-c2cc(N3CCN(C4CC4)CC3)cnc2[C@H](C)OC)c2c3cc(ccc31)-c1csc(n1)C[C@H](NC(=O)OC(C)(C)C)C(=O)N(C)NCC(=O)OCC(C)(C)C2` displayed a ring closure, yield of all isomers of 27%.

On to `CCn1c(-c2cc(N3CCN(C4CC4)CC3)cnc2[C@H](C)OC)c2c3cc(ccc31)-c1nnc(o1)C[C@H](NC(=O)OCc1ccccc1)C(=O)N1N[C@H](C(=O)OCC(C)(C)C2)C2CC1C2`, for which, under “from CCn1c(-c2cc(N3CCN(C4CC4)CC3)cnc2[C@H](C)OC)c(CC(C)(C)CO)c2cc(-c3nnc(C[C@H](NC(=O)OCc4ccccc4)C(=O)N4N[C@H](C(=O)O)C5CC4C5)o3)ccc21, PyBOP, DMAP, 6.64 mM, 25.0 °C, 16.0 h, 2 steps”, the ring closure, yield of all isomers was found to be 29%.

On to `CCn1c(-c2cc(N3CCN(C)CC3)cnc2[C@H](C)OC)c2c3cc(ccc31)-c1csc(n1)C[C@H](NC(=O)OC(C)(C)C)C(=O)N(C)NCC(=O)OCC(C)(C)C2`, for which the ring closure, yield of all isomers (from CCn1c(-c2cc(N3CCN(C)CC3)cnc2[C@H](C)OC)c(CC(C)(C)CO)c2cc(-c3csc(C[C@H](NC(=O)OC(C)(C)C)C(=O)N(C)NCC(=O)O)n3)ccc21, PyBOP/DMAP, 0.81 mM, 0.0 °C, 1.0 h) stood at 42%.

`CCn1c(-c2cc(N3CCN(C(=O)OCc4ccccc4)CC3)cnc2[C@H](C)OC)c2c3cc(ccc31)-c1csc(n1)C[C@H](NC(=O)OC(C)(C)C)C(=O)N(C)NCC(=O)OCC(C)(C)C2`: the ring closure, yield of all isomers (from CCn1c(-c2cc(N3CCN(C(=O)OCc4ccccc4)CC3)cnc2[C@H](C)OC)c(CC(C)(C)CO)c2cc(-c3csc(C[C@H](NC(=O)OC(C)(C)C)C(=O)N(C)NCC(=O)O)n3)ccc21, EDCI/HOBt/DIEA, 4.25 mM, 25.0 °C, 16.0 h) is 38.2%.

For `CCn1c(-c2cc(N3CCN(C(=O)OCc4ccccc4)CC3)cnc2[C@H](C)OC)c2c3cc(ccc31)-c1cccc(c1)C[C@H](NC(=O)OC(C)(C)C)C(=O)N1N[C@H](C(=O)OCC(C)(C)C2)C2CC1C2`, the ring closure, yield of all isomers (from CCn1c(-c2cc(N3CCN(C(=O)OCc4ccccc4)CC3)cnc2[C@H](C)OC)c(CC(C)(C)CO)c2cc(-c3cccc(C[C@H](NC(=O)OC(C)(C)C)C(=O)N4N[C@H](C(=O)O)C5CC4C5)c3)ccc21, EDCI/HOBt/DIEA, 6.0 mM, 25.0 °C, 16.0 h) is 27%.

As to `CCn1c(-c2cc(N3CCN(C(=O)OCc4ccccc4)CC3)cnc2[C@H](C)OC)c2c3cc(ccc31)-c1csc(n1)C[C@H](NC(=O)OC(C)(C)C)C(=O)N1N[C@@H](C(=O)OCC(C)(C)C2)C2CC1C2`, the ring closure, yield of all isomers (from CCn1c(-c2cc(N3CCN(C(=O)OCc4ccccc4)CC3)cnc2[C@H](C)OC)c(CC(C)(C)CO)c2cc(-c3csc(C[C@H](NC(=O)OC(C)(C)C)C(=O)N4N[C@@H](C(=O)O)C5CC4C5)n3)ccc21, EDCI/HOBt/DIEA, 5.2 mM, 35.0 °C) came out at 49%.

In turn, `CCn1c(-c2cc(N3CCN(C)CC3)cnc2[C@H](C)OC)c2c3cc(ccc31)-c1csc(n1)C[C@H](NC(=O)OC(C)(C)C)C(=O)N1N[C@H](C(=O)OCC(C)(C)C2)C2CC1C2` registered a ring closure, yield of all isomers (from CCn1c(-c2cc(N3CCN(C)CC3)cnc2[C@H](C)OC)c(CC(C)(C)CO)c2cc(-c3csc(C[C@H](NC(=O)OC(C)(C)C)C(=O)N4N[C@H](C(=O)O)C5CC4C5)n3)ccc21, PyBOP/DMAP, 5.8 mM, 25.0 °C, 5.0 h) of 48.8%.

`CCn1c(-c2cc(N3CCN(C(=O)OCc4ccccc4)CC3)cnc2[C@H](C)OC)c2c3cc(ccc31)N1CCO[C@@H](C[C@H](NC(=O)OC(C)(C)C)C(=O)N3N[C@H](C(=O)OCC(C)(C)C2)C2CC3C2)C1` had a ring closure, yield of all isomers (from CCn1c(-c2cc(N3CCN(C(=O)OCc4ccccc4)CC3)cnc2[C@H](C)OC)c(CC(C)(C)CO)c2cc(N3CCO[C@@H](C[C@H](NC(=O)OC(C)(C)C)C(=O)N4N[C@H](C(=O)O)C5CC4C5)C3)ccc21, PyBOP/DMAP, 9.8 mM, 35.0 °C, 0.5 h) of 16%.

Regarding `CCn1c(-c2cccnc2[C@H](C)OC)c2c3cc(ccc31)N1CCO[C@@H](C[C@H](NC(=O)OC(C)(C)C)C(=O)N3N[C@H](C(=O)OCC(C)(C)C2)C2CC3C2)C1`, the ring closure, yield of all isomers (from CCn1c(-c2cccnc2[C@H](C)OC)c(CC(C)(C)CO)c2cc(N3CCO[C@@H](C[C@H](NC(=O)OC(C)(C)C)C(=O)N4N[C@H](C(=O)O)C5CC4C5)C3)ccc21, PyBOP, DMAP, 2.6 mM, 25.0 °C, 16.0 h) was 96.2%.

For the setting “from C=C[C@@H]1CCN(C(=O)[C@H](Cc2nc(-c3ccc4c(c3)c(CC(C)(C)CO)c(-c3cc(N5CCN(C(=O)OCc6ccccc6)CC5)cnc3[C@H](C)OC)n4CC)cs2)NC(=O)OC(C)(C)C)N[C@@H]1C(=O)O, EDCI/HOBt/DIEA, 10.0 mM, 25.0 °C, 16.0 h”, `C=C[C@@H]1CCN2N[C@@H]1C(=O)OCC(C)(C)Cc1c(-c3cc(N4CCN(C(=O)OCc5ccccc5)CC4)cnc3[C@H](C)OC)n(CC)c3ccc(cc13)-c1csc(n1)C[C@H](NC(=O)OC(C)(C)C)C2=O` displayed a ring closure, yield of all isomers of 36.7%.

Regarding `CCn1c(-c2cccnc2[C@H](C)OC)c2c3cc(ccc31)N1CCO[C@@H](C[C@H](NC(=O)OC(C)(C)C)C(=O)N(C)NCC(=O)OCC(C)(C)C2)C1`, where the note is “from CCn1c(-c2cccnc2[C@H](C)OC)c(CC(C)(C)CO)c2cc(N3CCO[C@@H](C[C@H](NC(=O)OC(C)(C)C)C(=O)N(C)NCC(=O)O)C3)ccc21, EDCI/HOBt, DIEA, 6.5 mM, 25.0 °C, 16.0 h”, the ring closure, yield of all isomers came to 44%.
